US11597721B2, “Heterocyclic compounds comprising pyridine useful as modulators of IL-12, IL-23 and/or IFNα responses” (BRISTOL-MYERS SQUIBB COMPANY, priority 2018, dated 2023)

The compounds below were run on IFNα-Induced STAT Phosphorylation (assay: IFNα-Induced STAT Phosphorylation in Human Whole Blood). Settings: 1 h compound incubation, 1000 U/mL recombinant human IFNα A/D for 15 min, pSTAT5 in CD3 positive population, read-out: LE Human WB IFNα-Induced Stat Phosph. (IC50).
Type: cell-based
Description: IFNα-Induced STAT Phosphorylation in Human Whole Blood
The amount of pSTAT5 expression was quantitated by median fluorescence intensity after gating on the CD3 positive population.

| IC50 | Structure (SMILES) |
| --- | --- |
| 50 nM | [2H]C([2H])([2H])NC(=O)c1nnc(Nc2ccccn2)cc1Nc1nccc(-c2ncn(C)n2)c1OC [Example 2, 4-{[3-methoxy-4-(1-methyl-1H-1,2,4-triazol-3-yl)pyridin-2-yl]amino}-N—(^2H3)methyl-6-[(pyridin-2-yl)amino]pyridazine-3-carboxamide] |

Same assay, conditions: Homo sapiens, 1 h compound incubation, 1000 U/mL recombinant human IFNα A/D for 15 min, pSTAT5 in CD3 positive population, read-out: LE Human WB IFNα-Induced Stat Phosph. (IC50)

| IC50 | Structure (SMILES) |
| --- | --- |
| 210 nM | [2H]C([2H])([2H])NC(=O)c1nnc(NC(=O)CC)cc1Nc1nccc(-c2noc(COC)n2)c1OC [Example 66, 4-({3-methoxy-4-[5-(methoxymethyl)-1,2,4-oxadiazol-3-yl]pyridin-2-yl}amino)-N—(^2H3)methyl-6-propanamidopyridazine-3-carboxamide] |
| 220 nM | [2H]C([2H])([2H])NC(=O)c1nnc(Nc2cc(F)c(F)cn2)cc1Nc1nccc(-c2ncn(C)n2)c1OC [Example 39, 6-[(4,5-difluoropyridin-2-yl)amino]-4-{[3-methoxy-4-(1-methyl-1H-1,2,4-triazol-3-yl)pyridin-2-yl]amino}-N—(^2H3)methylpyridazine-3-carboxamide] |
| 210 nM | [2H]C([2H])([2H])NC(=O)c1nnc(NC(=O)CC2CC2)cc1Nc1nccc(-c2cnc(C(=O)N(C)C)cn2)c1OC [Example 89, 6-(2-Cyclopropylacetamido)-4-((4-(5-(dimethylcarbamoyl)pyrazin-2-yl)-3-methoxypyridin-2-yl)amino)-N-(methyl-d3)pyridazine-3-carboxamide] |
| 50 nM | [2H]C([2H])([2H])NC(=O)c1nnc(Nc2cc(C(C)(C)O)ccn2)cc1Nc1nccc(-c2ncn(C)n2)c1OC [Example 25, 6-{[4-(2-hydroxypropan-2-yl)pyridin-2-yl]amino}-4-{[3-methoxy-4-(1-methyl-1H-1,2,4-triazol-3-yl)pyridin-2-yl]amino}-N—(^2H3)methylpyridazine-3-carboxamide] |
| 130 nM | [2H]C([2H])([2H])NC(=O)c1nnc(NC(=O)C2CC2)cc1Nc1nccc(-c2noc(CC#N)n2)c1OC [Example 60, 4-({4-[5-(cyanomethyl)-1,2,4-oxadiazol-3-yl]-3-methoxypyridin-2-yl}amino)-6-cyclopropaneamido-N—(^2H3)methylpyridazine-3-carboxamide] |
| 10 nM | [2H]C([2H])([2H])NC(=O)c1cnc(NC(=O)C2CC2)cc1Nc1nccc(-c2noc(COC)n2)c1OC [Example 45, 6-cyclopropaneamido-4-({3-methoxy-4-[5-(methoxymethyl)-1,2,4-oxadiazol-3-yl]pyridin-2-yl}amino)-N—(^2H3)methylpyridine-3-carboxamide] |
| 90 nM | [2H]C([2H])([2H])NC(=O)c1nnc(NC(=O)OC)cc1Nc1nccc(-c2noc(CN3CCCCS3(=O)=O)n2)c1OC [Example 64, methyl N-{5-[(4-{5-[(1,1-dioxo-1λ^6,2-thiazinan-2-yl)methyl]-1,2,4-oxadiazol-3-yl}-3-methoxypyridin-2-yl)amino]-6-[(^2H3)methylcarbamoyl]pyridazin-3-yl}carbamate] |
